The assay has as its target T1, AC1 (Homo sapiens, UniProt Q08828).
T1 construct: expressed in transfected cells
In words: Inhibition of A23187-mediated (Ca2+-stimulated) cAMP accumulation in HEK cells stably expressing AC1. It counts as cell-based. To be noted: for inhibition at 4 µM / inhibition at 40 µM: HEK293, read-out: AC1 Inhibition Percentage; for inhibition at 4 µM: 4 μM compound; for inhibition at 40 µM: 40 μM compound; for IC50: HEK cells stably expressing AC1, inhibitors 30 min, then 3 μM A23187 with IBMX, average and S.E.M. of at least three independent experiments, read-out: IC50 for inhibition of the A23187-mediated cAMP response of AC1. As for the experimental part: HEK cells stably expressing AC1 were treated with inhibitors for 30 min, and subsequently incubated with 3 μM A23187 in the presence of 2 mM IBMX. Data represent the average and S.E.M. of at least three independent experiments.
A23187 is a Ca2+ ionophore, which promotes Ca2+ binding to calmodulin in the cells and, subsequent stimulation of AC1.
HEK (human embryonic kidney) cells stably expressing human AC1, were cultured in Dubelcco's Modified Eagle Medium (Life Technologies, Grand Island, N.Y.) supplemented with 5% bovine calf serum (Hyclone, Logan, Utah), 5% fetal clone I (Hyclone, Logan, Utah), Antibiotic-Antimycotic (Life Technologies, Grand Island, N.Y.), and G418 (Invivogen, San Diego, Calif.). The cells were grown to confluency in 15 cm disses, harvested using Cell Dissociation Buffer (Life Technologies, Grand Island, N.Y.), and resuspended in 4 ml of fetal bovine serum (Hyclone, Logan, Utah) containing 10% dimethyl sulfoxide (Sigma-Aldrich, St. Louis, Mo.). 1 ml of cell suspension was added to cryovials that were incubated overnight at −80° C. in a CoolCell device (BioCision, Larkspur, Calif.) for cryopreservation. On the following day, cryovials were stored in liquid N2 until the assay day.
Cryopreserved HEK-AC1 cells were thawed in a 37° C. water-bath, resuspended in 10 ml optiMEM (Life Technologies, Grand Island, N.Y.) and centrifuged at 500×g for 5 min. The cells were resuspended in 10 ml optiMEM and the centrifugation step was repeated. Cells were then resuspended in 1 ml optiMEM and counted using a Countess automated cell counter (Life Technologies, Grand Island, N.Y.). Cells were added to a white, flat bottom, low-volume, tissue culture-treated 384 well plate (PerkinElmer, Shelton, Conn.) at a final density of 2500 cells/well. The plate was centrifuged for 1 min at 100×g and incubated in a 37° C. humidified incubator for 1 h. […] Following this incubation A23187 (Sigma-Aldrich, St. Louis, Mo.) (3 μM final concentration) containing 3-isobutyl-1-methylxanthine (Sigma-Aldrich, St. Louis, Mo.) (0.5 mM final concentration) was added. The plate was centrifuged for 1 min at 100×g and incubated at room temperature for 1 h. Cyclic AMP accumulation was measured using Cisbio's dynamic 2 kit (Cisbio Bioassays, Bedford, Mass.) according to the manufacturer's instructions. Plates were analyzed for fluorescent emissions at 620 nm and 665 nm using 330 nm as the excitation wavelength in a Cytation 3 Cell Imaging Multi-Mode Reader (Biotek, Winooski, Vt.), and ratiometric analysis was carried out by dividing the 665 nm emissions by the 620 nm emissions to extrapolate the cAMP concentrations from a cAMP standard curve. The data represent the average of at least three independent experiments ran in duplicate.
In general terms: Cyclic AMP is a second messenger, typically raised through Gs and lowered through Gi signalling.

T1 sequence (Q08828 whole entry): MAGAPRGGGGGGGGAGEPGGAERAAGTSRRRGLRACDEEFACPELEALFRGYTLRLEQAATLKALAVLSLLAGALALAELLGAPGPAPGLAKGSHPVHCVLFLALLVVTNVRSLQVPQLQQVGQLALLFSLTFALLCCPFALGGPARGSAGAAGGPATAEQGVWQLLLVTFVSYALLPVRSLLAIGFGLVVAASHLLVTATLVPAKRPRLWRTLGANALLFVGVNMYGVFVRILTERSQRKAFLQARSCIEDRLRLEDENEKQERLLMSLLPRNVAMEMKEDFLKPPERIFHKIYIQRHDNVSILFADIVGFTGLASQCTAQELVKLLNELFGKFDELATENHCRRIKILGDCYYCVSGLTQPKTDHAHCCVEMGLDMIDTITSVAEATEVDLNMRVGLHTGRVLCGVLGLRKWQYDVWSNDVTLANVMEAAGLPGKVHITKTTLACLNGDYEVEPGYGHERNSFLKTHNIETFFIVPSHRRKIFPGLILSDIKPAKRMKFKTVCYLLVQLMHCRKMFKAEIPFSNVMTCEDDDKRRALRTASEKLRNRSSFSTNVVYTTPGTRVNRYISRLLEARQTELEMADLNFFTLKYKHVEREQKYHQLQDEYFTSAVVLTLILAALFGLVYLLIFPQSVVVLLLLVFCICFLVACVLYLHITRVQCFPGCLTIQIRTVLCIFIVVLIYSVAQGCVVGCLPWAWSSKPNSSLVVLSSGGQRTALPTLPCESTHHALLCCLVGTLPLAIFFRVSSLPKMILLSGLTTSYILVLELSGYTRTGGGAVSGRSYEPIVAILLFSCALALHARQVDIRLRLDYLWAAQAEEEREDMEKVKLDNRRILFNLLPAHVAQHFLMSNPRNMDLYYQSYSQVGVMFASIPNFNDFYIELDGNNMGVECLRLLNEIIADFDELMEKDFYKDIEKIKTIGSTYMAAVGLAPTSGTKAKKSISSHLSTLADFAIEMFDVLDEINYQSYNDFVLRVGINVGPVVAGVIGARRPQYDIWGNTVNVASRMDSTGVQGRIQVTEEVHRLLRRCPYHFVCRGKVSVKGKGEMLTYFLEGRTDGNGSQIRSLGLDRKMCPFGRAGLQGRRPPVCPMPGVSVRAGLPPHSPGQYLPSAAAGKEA

What is called inhibition is the change of the read-out against control, counted positive when it falls. Regarding `CN(C/C=C/c1ccccc1)Cc1cccc2ccccc12` [Compound 1, (E)-N-methyl-N-(naphthalen-1-ylmethyl)-3-phenylprop-2-en-1-amine, reference compound], the inhibition at 4 µM was 4% and the inhibition at 40 µM was 83%.
On the same counts, the results for `Fc1ccc(C(c2ccc(F)cc2)N2CCN(C/C=C/c3ccccc3)CC2)cc1` [Compound 3, 1-(bis(4-fluorophenyl)methyl)-4-cinnamylpiperazine, reference compound] are 35% and 97%.
Broadly, the IC50 is the midpoint of a concentration-inhibition curve. Take `C(=C\c1ccccc1)/CN(CCc1c[nH]c2ccccc12)Cc1ccccc1` [Compound 7aa, (E)-N-(2-(1H-indol-3-yl)ethyl)-N-benzyl-3-phenylprop-2-en-1-amine]: the inhibition at 4 µM stood at 41%, the inhibition at 40 µM is 92% and the IC50 came out at 9.92 µM.
For `Cc1ccc(/C=C/CN(CCc2c[nH]c3ccccc23)Cc2ccccc2)cc1` [Compound 7ab, (E)-N-(2-(1H-indol-3-yl)ethyl)-N-benzyl-3-p-tolylprop-2-en-1-amine], the inhibition at 4 µM came out at 20% and the inhibition at 40 µM was 91%.
On the same counts, the results for `Cc1cccc(/C=C/CN(CCc2c[nH]c3ccccc23)Cc2ccccc2)c1` [Compound 7ac, (E)-N-(2-(1H-indol-3-yl)ethyl)-N-benzyl-3-m-tolylprop-2-en-1-amine] are 18% and 93%.
On to `Ic1ccc(/C=C/CN(CCc2c[nH]c3ccccc23)Cc2ccccc2)cc1` [Compound 7ad, (E)-N-(2-(1H-indol-3-yl)ethyl)-N-benzyl-3-(4-iodophenyl)prop-2-en-1-amine], for which the inhibition at 4 µM was 59%, the inhibition at 40 µM was 93% and the IC50 is 10.2 µM.
In the same order, the values of `Fc1ccc(/C=C/CN(CCc2c[nH]c3ccccc23)Cc2ccccc2)cc1` [Compound 7ae, (E)-N-(2-(1H-indol-3-yl)ethyl)-N-benzyl-3-(4-fluorophenyl)prop-2-en-1-amine] are 47%, 91% and 12.9 µM.
Consider `Clc1ccc(/C=C/CN(CCc2c[nH]c3ccccc23)Cc2ccccc2)cc1` [Compound 7af, (E)-N-(2-(1H-indol-3-yl)ethyl)-N-benzyl-3-(4-chlorophenyl)prop-2-en-1-amine], for which the inhibition at 4 µM turned out to be 30% and the inhibition at 40 µM came to 98%.
`Brc1ccc(/C=C/CN(CCc2c[nH]c3ccccc23)Cc2ccccc2)cc1` [Compound 7ag, (E)-N-(2-(1H-indol-3-yl)ethyl)-N-benzyl-3-(4-bromophenyl)prop-2-en-1-amine]: the inhibition at 4 µM was 57%, the inhibition at 40 µM came out at 96% and the half-maximal inhibitory concentration (IC50) turned out to be 6.91 µM.
On to `FC(F)(F)c1ccc(/C=C/CN(CCc2c[nH]c3ccccc23)Cc2ccccc2)cc1` [Compound 7ah, (E)-N-(2-(1H-indol-3-yl)ethyl)-N-benzyl-3-(4-(trifluoromethyl)phenyl)prop-2-en-1-amine], for which the inhibition at 4 µM worked out at 24% and the inhibition at 40 µM came out at 96%.
For `CCOC(=O)c1ccc(/C=C/CN(CCc2c[nH]c3ccccc23)Cc2ccccc2)cc1` [Compound 7ai, (E)-ethyl 4-(3-((2-(1H-indol-3-yl)ethyl)(benzyl)amino)prop-1-enyl)benzoate], the inhibition at 4 µM is 36% and the inhibition at 40 µM amounted to 99%.
In the same order, the values of `COc1ccc(CN(C/C=C/c2ccccc2)CCc2c[nH]c3ccccc23)cc1` [Compound 7ba, (E)-N-(2-(1H-indol-3-yl)ethyl)-N-(4-methoxybenzyl)-3-phenylprop-2-en-1-amine] are 34% and 98%.
In the same order, the values of `Fc1ccc(CN(C/C=C/c2ccccc2)CCc2c[nH]c3ccccc23)cc1` [Compound 7bb, (E)-N-(2-(1H-indol-3-yl)ethyl)-N-(4-fluorobenzyl)-3-phenylprop-2-en-1-amine] are 31% and 96%.
In the same order, the values of `O=[N+]([O-])c1ccc(CN(C/C=C/c2ccccc2)CCc2c[nH]c3ccccc23)cc1` [Compound 7bc, (E)-N-(2-(1H-indol-3-yl)ethyl)-N-(4-nitrobenzyl)-3-phenylprop-2-en-1-amine] are 29% and 88%.
Regarding `C(=C\c1ccccc1)/CN(CCc1c[nH]c2ccccc12)Cc1cccc2ccccc12` [Compound 7c, (E)-N-(2-(1H-indol-3-yl)ethyl)-N-(naphthalen-1-ylmethyl)-3-phenylprop-2-en-1-amine], the inhibition at 4 µM was 39%, the inhibition at 40 µM worked out at 86% and the IC50 stood at 8.95 µM.
`Cn1cc(CCN(C/C=C/c2ccccc2)Cc2ccccc2)c2ccccc21` [Compound 7d, (E)-N-benzyl-N-(2-(1-methyl-1H-indol-3-yl)ethyl)-3-phenylprop-2-en-1-amine]: the inhibition at 4 µM is -8% and the inhibition at 40 µM worked out at 101%.
As to `C(=C\c1ccccc1)/CN(Cc1ccccc1)Cc1ccccc1` [Compound 7e, (E)-N,N-dibenzyl-3-phenylprop-2-en-1-amine], the inhibition at 4 µM was -9% and the inhibition at 40 µM was 75%.
Turning to `Cc1ccc(/C=C/CN(C)Cc2cccc3ccccc23)cc1` [Compound 7fa, (E)-N-methyl-N-(naphthalen-1-ylmethyl)-3-p-tolylprop-2-en-1-amine], the inhibition at 4 µM was -26% and the inhibition at 40 µM is 95%.
`Cc1cccc(/C=C/CN(C)Cc2cccc3ccccc23)c1` [Compound 7fb, (E)-N-methyl-N-(naphthalen-1-ylmethyl)-3-m-tolylprop-2-en-1-amine]: the inhibition at 4 µM came out at 2% and the inhibition at 40 µM was determined as 63%.
With `Cc1ccccc1/C=C/CN(C)Cc1cccc2ccccc12` [Compound 7fc, (E)-N-methyl-N-(naphthalen-1-ylmethyl)-3-o-tolylprop-2-en-1-amine], the inhibition at 4 µM was -71% and the inhibition at 40 µM is 77%.
On to `CN(C/C=C/c1ccc(I)cc1)Cc1cccc2ccccc12` [Compound 7fd, (E)-3-(4-iodophenyl)-N-methyl-N-(naphthalen-1-ylmethyl)prop-2-en-1-amine], for which the inhibition at 4 µM is 11% and the inhibition at 40 µM came to 94%.
In the same order, the values of `CN(C/C=C/c1ccc(F)cc1)Cc1cccc2ccccc12` [Compound 7fe, (E)-3-(4-fluorophenyl)-N-methyl-N-(naphthalen-1-ylmethyl)prop-2-en-1-amine] are 4% and 85%.
In the same order, the values of `CN(C/C=C/c1ccc(Cl)cc1)Cc1cccc2ccccc12` [Compound 7ff, (E)-3-(4-chlorophenyl)-N-methyl-N-(naphthalen-1-ylmethyl)prop-2-en-1-amine] are 37% and 91%.
On the same counts, the results for `CN(C/C=C/c1ccc(Br)cc1)Cc1cccc2ccccc12` [Compound 7fg, (E)-3-(4-bromophenyl)-N-methyl-N-(naphthalen-1-ylmethyl)prop-2-en-1-amine] are -61% and 93%.
With `CN(C/C=C/c1ccc(C(F)(F)F)cc1)Cc1cccc2ccccc12` [Compound 7fh, (E)-N-methyl-N-(naphthalen-1-ylmethyl)-3-(4-(trifluoromethyl)phenyl)prop-2-en-1-amine], the inhibition at 4 µM stood at 30% and the inhibition at 40 µM amounted to 87%.
In the same order, the values of `CCOC(=O)c1ccc(/C=C/CN(C)Cc2cccc3ccccc23)cc1` [Compound 7fi, (E)-ethyl 4-(3-(methyl(naphthalen-1-ylmethyl)amino)prop-1-enyl)benzoate] are -40% and 85%.
In the same order, the values of `COc1ccc(/C=C/CN(C)Cc2cccc3ccccc23)cc1` [Compound 7fj, (E)-3-(4-methoxyphenyl)-N-methyl-N-(naphthalen-1-ylmethyl)prop-2-en-1-amine] are -14% and 82%.

Values taken from patent US10100001B2, “Adenylyl cyclase inhibitors for neuropathic and inflammatory pain” (Purdue Research Foundation, priority 2015, dated 2018).
